Test results from ChEMBL document CHEMBL1201862, “PubChem BioAssay data set” (2004).
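The compound was tested at five concentrations on cells cultured in 96-well plates, with a 48-hour exposure period. The concentration for 50% growth inhibition is given as GI50.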 Calls of active or inactive are those of the source. Cut-off read from the data, not from the text of the source: active = GI50 up to about 1.1 µM and inactive = higher.

Columns and labels:
Test in all cases: NCI-60 cell line screen, 48 h
SNB-75 = system: SNB-75
UACC-257 = system: UACC-257
SR = system: SR
LOX IMVI = system: LOX IMVI
EKVX = system: EKVX
SF-295 = system: SF-295
HT-29 = system: HT-29
SF-268 = system: SF-268
PC-3 = system: PC-3
SNB-19 = system: SNB-19
Hs-578T = system: Hs-578T
K562 = system: K562
UO-31 = system: UO-31
RXF 393 = system: RXF 393
BT-549 = system: BT-549
M14 = system: M14
TK-10 = system: TK-10
Malme-3M = system: Malme-3M
NCI-H23 = system: NCI-H23
UACC-62 = system: UACC-62

SMILES | GI50 (SNB-75) | GI50 (UACC-257) | GI50 (SR) | GI50 (LOX IMVI) | GI50 (EKVX) | GI50 (SF-295) | GI50 (HT-29) | GI50 (SF-268) | GI50 (PC-3) | GI50 (SNB-19) | GI50 (Hs-578T) | GI50 (K562) | GI50 (UO-31) | GI50 (RXF 393) | GI50 (BT-549) | GI50 (M14) | GI50 (TK-10) | GI50 (Malme-3M) | GI50 (NCI-H23) | GI50 (UACC-62)
O=C(O)CSc1ccc([N+](=O)[O-])cc1[N+](=O)[O-] | > 100 µM (inactive) | > 100 µM (inactive) | > 100 µM (inactive) | > 100 µM (inactive) | > 100 µM (inactive) | > 100 µM (inactive) | > 100 µM (inactive) | > 100 µM (inactive) | > 100 µM (inactive) | > 100 µM (inactive) | > 100 µM (inactive) | > 100 µM (inactive) | > 100 µM (inactive) | > 100 µM (inactive) | > 100 µM (inactive) | > 100 µM (inactive) | > 100 µM (inactive) | > 100 µM (inactive) | > 100 µM (inactive) | > 100 µM (inactive)
Cc1cccc(CNc2[nH]cnc3nncc2-3)c1 | 53.5 µM (inactive) | 76.6 µM (inactive) | 43.5 µM (inactive) | > 100 µM (inactive) | 37.2 µM (inactive) | > 100 µM (inactive) | > 100 µM (inactive) | > 100 µM (inactive) | > 100 µM (inactive) | > 100 µM (inactive) | > 100 µM (inactive) | 47.1 µM (inactive) | 47.4 µM (inactive) | > 100 µM (inactive) | > 100 µM (inactive) | > 100 µM (inactive) | > 100 µM (inactive) | > 100 µM (inactive) | > 100 µM (inactive) | > 100 µM (inactive)
NCCNc1ccc(NCCN)c2c1C(=O)c1c(O)ccc(O)c1C2=O | 0.0162 µM (active) | 1.06 µM (active) | < 0.001 µM (active) | 0.007 µM (active) | 0.436 µM (active) | 0.00445 µM (active) | 0.0659 µM (active) | 0.00721 µM (active) | 0.205 µM (active) | 0.00944 µM (active) | 0.148 µM (active) |  | 0.0391 µM (active) | 0.0719 µM (active) | 0.653 µM (active) | 0.0149 µM (active) | 0.428 µM (active) | 0.0671 µM (active) | 0.00728 µM (active) | 0.0108 µM (active)
COc1ccc2c(c1OC)OC[C@@H](C1=CC(=O)C=C(O)C1=O)C2 | 9.62 µM (inactive) | 13 µM (inactive) | 6.31 µM (inactive) | 3.32 µM (inactive) | 12.5 µM (inactive) | 16.1 µM (inactive) | 17.7 µM (inactive) | 18.1 µM (inactive) | 13.1 µM (inactive) | 16 µM (inactive) | 20.6 µM (inactive) | 2.2 µM (inactive) | 12.6 µM (inactive) | 6.4 µM (inactive) | 12.8 µM (inactive) | 12.4 µM (inactive) | 14.2 µM (inactive) | 12 µM (inactive) | 16.5 µM (inactive) | 12.1 µM (inactive)
S=C1Cc2c(-c3ccccc3)cc(-c3ccc(Cl)cc3)nc2-c2ccccc2N1 | 0.951 µM (active) | 4.7 µM (inactive) | > 68.7 µM (inactive) | 3.41 µM (inactive) | 2.52 µM (inactive) | 3.39 µM (inactive) | 2.65 µM (inactive) | 1.89 µM (inactive) | 6.14 µM (inactive) | 1.56 µM (inactive) | 1.32 µM (inactive) |  | 1.96 µM (inactive) | 3.06 µM (inactive) | 5.56 µM (inactive) | 3.97 µM (inactive) | 2.12 µM (inactive) | 3.33 µM (inactive) | 2.88 µM (inactive) | 2.45 µM (inactive)
CC1C2CC(C(S(=O)(=O)N3CCOCC3)/C2=N\O)C1(C)C (stereo not given) | > 100 µM (inactive) | > 100 µM (inactive) | > 100 µM (inactive) | > 100 µM (inactive) | > 100 µM (inactive) | > 100 µM (inactive) | > 100 µM (inactive) | > 100 µM (inactive) | > 100 µM (inactive) | > 100 µM (inactive) | > 100 µM (inactive) | > 100 µM (inactive) | > 100 µM (inactive) | > 100 µM (inactive) | > 100 µM (inactive) | > 100 µM (inactive) | > 100 µM (inactive) | > 100 µM (inactive) | > 100 µM (inactive) | > 100 µM (inactive)
Cc1cc(S(=O)(=O)/N=C(\NN)NCC(=O)NN)c(S)cc1Cl | > 10 µM (inactive) | > 10 µM (inactive) | > 10 µM (inactive) | > 10 µM (inactive) | > 10 µM (inactive) | > 10 µM (inactive) | > 10 µM (inactive) | > 10 µM (inactive) | > 10 µM (inactive) | > 10 µM (inactive) | > 10 µM (inactive) | > 10 µM (inactive) |  | > 10 µM (inactive) | > 10 µM (inactive) | > 10 µM (inactive) | > 10 µM (inactive) | > 10 µM (inactive) | > 10 µM (inactive) | > 10 µM (inactive)
CC(=O)OCC1OC(NC(=S)CCSc2nc3ccccc3c(=O)n2-c2ccccc2)C(OC(C)=O)C(OC(C)=O)C1OC(C)=O (stereo not given) | 22 µM (inactive) | 30.4 µM (inactive) | 34.1 µM (inactive) | 79.6 µM (inactive) | 57.8 µM (inactive) | 32.5 µM (inactive) | > 100 µM (inactive) | > 100 µM (inactive) | 40.9 µM (inactive) | 34 µM (inactive) | 24.8 µM (inactive) | 34.2 µM (inactive) | 42 µM (inactive) | 18 µM (inactive) | 31.4 µM (inactive) | 46.1 µM (inactive) |  | > 100 µM (inactive) | 68.1 µM (inactive) | 28.4 µM (inactive)
Cc1cc(=O)oc2cc(OC(=O)Nc3ccc(Cl)c(Cl)c3)ccc12 | 25.2 µM (inactive) | 30.8 µM (inactive) | 19.7 µM (inactive) | 18.9 µM (inactive) | 30.8 µM (inactive) | 20.9 µM (inactive) | 25.2 µM (inactive) | 38 µM (inactive) | 22.5 µM (inactive) | 25.9 µM (inactive) | 20.7 µM (inactive) | 10.9 µM (inactive) | 27.4 µM (inactive) | 14.3 µM (inactive) | 17.8 µM (inactive) | 22.6 µM (inactive) | 34.9 µM (inactive) | 23.1 µM (inactive) | 20.7 µM (inactive) | 16 µM (inactive)
N#CC1(C#N)NC(c2cccs2)C(C#N)(C#N)NC1c1cccs1 (stereo not given) | 27.4 µM (inactive) | > 100 µM (inactive) | 28.2 µM (inactive) | 19.7 µM (inactive) | 55.8 µM (inactive) | 52.5 µM (inactive) | 47.3 µM (inactive) | 35.5 µM (inactive) | 27.4 µM (inactive) | 55.2 µM (inactive) | 43.2 µM (inactive) | 22.4 µM (inactive) | 42.6 µM (inactive) | 31.7 µM (inactive) | 21.2 µM (inactive) | 31.3 µM (inactive) | > 100 µM (inactive) | 41.9 µM (inactive) | 55.1 µM (inactive) | 20.6 µM (inactive)
COc1cc(OC)c2c(c1)OC(c1cccnc1)C(c1ccccc1)C2=O (stereo not given) | > 100 µM (inactive) | > 100 µM (inactive) | > 100 µM (inactive) | > 100 µM (inactive) | > 100 µM (inactive) | > 100 µM (inactive) | > 100 µM (inactive) | > 100 µM (inactive) | 93.3 µM (inactive) | > 100 µM (inactive) | 49.5 µM (inactive) | > 100 µM (inactive) | 35.8 µM (inactive) | > 100 µM (inactive) | > 100 µM (inactive) | > 100 µM (inactive) | > 100 µM (inactive) | > 100 µM (inactive) | > 100 µM (inactive) | > 100 µM (inactive)
CN1CC[C@@]2(c3cccc(O)c3)CC(=O)/C(=C/c3ccccc3)[C@H]1C2.[O-][Cl+3]([O-])([O-])O | 2.47 µM (inactive) | 16.1 µM (inactive) | 2.61 µM (inactive) | 1.7 µM (inactive) | 14.9 µM (inactive) | 11.3 µM (inactive) | 3.18 µM (inactive) | 4.28 µM (inactive) | 4.29 µM (inactive) | 7.31 µM (inactive) | 3.35 µM (inactive) | 2.58 µM (inactive) | 12.9 µM (inactive) | 8.17 µM (inactive) | 11.8 µM (inactive) | 10.5 µM (inactive) | 15.7 µM (inactive) | 15 µM (inactive) | 16 µM (inactive) | 
CN(C)c1nc2n(CCO)ccnc-2c(=O)n1 | > 100 µM (inactive) | > 100 µM (inactive) | > 100 µM (inactive) | > 100 µM (inactive) | > 100 µM (inactive) | > 100 µM (inactive) | > 100 µM (inactive) | > 100 µM (inactive) | > 100 µM (inactive) | > 100 µM (inactive) | > 100 µM (inactive) | > 100 µM (inactive) | > 100 µM (inactive) | > 100 µM (inactive) | > 100 µM (inactive) | > 100 µM (inactive) | > 100 µM (inactive) | > 100 µM (inactive) | > 100 µM (inactive) | > 100 µM (inactive)
O=c1oc2cc(O)ccc2cc1-c1nc2ccccc2o1 | 63.8 µM (inactive) | 43.4 µM (inactive) | 30.9 µM (inactive) | 44.4 µM (inactive) | 28.5 µM (inactive) | 44.9 µM (inactive) | 33.7 µM (inactive) | 32.2 µM (inactive) | 42.4 µM (inactive) | 29.1 µM (inactive) | 33.4 µM (inactive) | 30.4 µM (inactive) | 26.9 µM (inactive) | < 0.01 µM (active) | 15.5 µM (inactive) | 36.3 µM (inactive) | 37 µM (inactive) | 39.5 µM (inactive) | 32.6 µM (inactive) | 20 µM (inactive)
